# Reference: US11246936B2, “Compositions and methods using rebaudioside X to provide sweetness enhancement” (The Coca-Cola Company, priority 2013, dated 2022)
# Legend:
# panelists [1] = test: Taste evaluation of lemon-lime carbonated soft drinks against HFCS-55 controls; format: in vivo, human
# Description: Lemon-lime carbonated soft drinks (CSD) were made by dissolving all ingredients in an amount of water sufficient to make a syrup from which finished beverages were made by adding 5.5 parts carbonated water to 1 part syrup (beverage carbonation target of 3.7 volumes of CO2). Products were prepared with the ingredients provided in Table 8: The beverages were aged for seven days at room temperature and then cooled at 4° C. before tasting. Four panelists evaluated the beverages. Bottles were removed from the refrigerator and about 20 ml of beverage poured in 2 oz-plastic cups. Mineral water was given for palate rinsing before tasting and between tasting different samples.
# panelists [2] = test: Taste evaluation of sweetness against sucrose reference beverages (water and citric acid buffer); format: in vivo, human
# Description: Solutions were made by dissolving all ingredients in treated water. For citric acid buffer, citric acid and potassium citrate were added in a sufficient amount to bring the pH to 3.2. Finished products were filled in 300 ml-glass bottles and stored in the refrigerator. The Rebaudioside X used was 95% pure and obtained from Pure Circle. Beverages were kept in the refrigerator overnight and tasted cold the following day. Two panelists evaluated the beverages. Bottles were removed from the refrigerator and about 50 ml of the beverage was poured in 4 oz-plastic cups. Taste test were conducted in two sessions for each type of solution: water and citric acid buffer. In the first session, the sweetness level of the beverages containing 20 ppm and 30 ppm rebaudioside X were determined against the 0.5%, 1%, and 1.5% sucrose beverages. In the second session, the sweetness level of the beverages containing 7% sucrose and either 20 ppm or 30 ppm rebaudioside X were determined against the 7%, 8%, 9%, and 10% sucrose beverages. Panelists were given mineral water for rinsing before tasting and between tasting different samples. Unsalted crackers were also given to panelists to eat followed by rinsing their mouth with mineral water before tasting the next sample.
# human sense of taste = test: Sweetness recognition threshold; format: in vivo
# Excerpt: The term “sweetness recognition threshold,” as generally used herein, is the lowest known concentration of a sweet compound that is perceivable by the human sense of taste. As such, rebaudioside X enhances or potentiates the sweet taste of sweeteners without providing any noticeable sweet taste by itself when present below its sweetness recognition threshold concentration. However, rebaudioside X may provide a detectable sweet taste at concentrations above its sweetness recognition threshold. The sweetness recognition threshold of rebaudioside X is about 20 to about 30 ppm.
# The term “sucrose equivalence,” as used herein, refers to the sweetness of a composition containing at least one […] sweetener against a sucrose reference. Typically, taste panelists are trained to detect sweetness of reference sucrose solutions containing between 1-15% sucrose (w/v). Other non-sucrose sweeteners are then tasted at a series of dilutions to determine the concentration of the non-sucrose, i.e. rebaudioside X, sweetener that is as sweet (i.e. isosweet) to a given percent sucrose reference.
smiles,measurement,setting,value
"C=C1C[C@@]23CC[C@H]4[C@@](C)(CCC[C@@]4(C)C(=O)O[C@@H]4O[C@H](CO)[C@@H](O)[C@H](O[C@@H]5O[C@H](CO)[C@@H](O)[C@H](O)[C@H]5O)[C@H]4O[C@@H]4O[C@H](CO)[C@@H](O)[C@H](O)[C@H]4O)[C@@H]2CC[C@]1(O[C@@H]1O[C@H](CO)[C@@H](O)[C@H](O[C@@H]2O[C@H](CO)[C@@H](O)[C@H](O)[C@H]2O)[C@H]1O[C@@H]1O[C@H](CO)[C@@H](O)[C@H](O)[C@H]1O)C3 [rebaudioside X, 13-[(2-O-β-D-glucopyranosyl-3-O-β-D-glucopyranosyl-β-D-glucopyranosyl)oxy] ent kaur-16-en-19-oic acid-[(2-O-β-D-glucopyranosyl-3-O-β-D-glucopyranosyl-β-D-glucopyranosyl) ester]]",overall sweetness similar to HFCS-55 beverage,"panelists [1]; 8% HFCS-55 and 30 ppm rebaudioside X in lemon lime CSD, four panelists, 10% HFCS-55 same sweetness as 10% sucrose",about 10 % HFCS-55
same,sweetness enhancement,panelists [1]; 30 ppm rebaudioside X added to a beverage containing 8% HFCS-55 (same sweetness as 8% sucrose),about 2.0%
same,overall sweetness similar to sucrose beverage,"panelists [2]; 7% sucrose and 20 ppm rebaudioside X in water or citric acid buffer, between the 9% and 10% sucrose beverage (average)",~9.5 % sucrose
same,overall sweetness similar to sucrose beverage,panelists [2]; 7% sucrose and 30 ppm rebaudioside X in either water or citric acid buffer,~10 % sucrose
same,sweetness enhancement,panelists [2]; 20 and 30 ppm rebaudioside X added to a beverage containing 7% sucrose,about 1.5%
same,increase in isosweetness provided by rebaudioside X,panelists [2]; 20 ppm rebaudioside X in 7.0% (w/v) sucrose beverage,2.5 % (w/v)
same,overall sweetness similar to sucrose beverage,"panelists [2]; 20 ppm rebaudioside X in either water or citric acid buffer (pH 3.2), two panelists, tasted cold",~1 % sucrose
same,overall sweetness similar to sucrose beverage,"panelists [2]; 30 ppm rebaudioside X in either water or citric acid buffer (pH 3.2), two panelists, tasted cold",~1.5 % sucrose
same,isosweet sucrose solution,panelists [2]; beverage containing 7.0% (w/v) sucrose and 20 ppm rebaudioside X,9.5 % (w/v)
same,isosweet sucrose solution,"panelists [2]; solution containing 20 ppm rebaudioside X, no other sweetener",1.0 % (w/v)
same,sucrose equivalence provided at the sweetness recognition threshold,human sense of taste; at about 20-30 ppm rebaudioside X,1.0-1.5%
same,sweetness recognition threshold,human sense of taste; lowest concentration perceivable by the human sense of taste,20-30 ppm
